Measured values reported in patent publication US8119681B2, “2-[1-phenyl-5-hydroxy or methoxy-4alpha-methyl-hexahydrocyclopenta [ƒ]indazole-5-YL]ethyl phenyl derivatives as glucocorticoid receptor ligands” (Merck Sharp & Dohme Corp., priority 2006, dated 2012).

Experiments:
[1] = biological target: T1, human GR (Homo sapiens, UniProt P04150); assay: Trans-Activation Modulation of Glucocorticoid Receptor (GRAMMER), MMTV-LUC reporter gene; type: cell-based; set-up: endogenous in cells; conditions: for Emax: A549; for EC50: A549 cells, IP = inflection point
T1 sequence (P04150 1-777): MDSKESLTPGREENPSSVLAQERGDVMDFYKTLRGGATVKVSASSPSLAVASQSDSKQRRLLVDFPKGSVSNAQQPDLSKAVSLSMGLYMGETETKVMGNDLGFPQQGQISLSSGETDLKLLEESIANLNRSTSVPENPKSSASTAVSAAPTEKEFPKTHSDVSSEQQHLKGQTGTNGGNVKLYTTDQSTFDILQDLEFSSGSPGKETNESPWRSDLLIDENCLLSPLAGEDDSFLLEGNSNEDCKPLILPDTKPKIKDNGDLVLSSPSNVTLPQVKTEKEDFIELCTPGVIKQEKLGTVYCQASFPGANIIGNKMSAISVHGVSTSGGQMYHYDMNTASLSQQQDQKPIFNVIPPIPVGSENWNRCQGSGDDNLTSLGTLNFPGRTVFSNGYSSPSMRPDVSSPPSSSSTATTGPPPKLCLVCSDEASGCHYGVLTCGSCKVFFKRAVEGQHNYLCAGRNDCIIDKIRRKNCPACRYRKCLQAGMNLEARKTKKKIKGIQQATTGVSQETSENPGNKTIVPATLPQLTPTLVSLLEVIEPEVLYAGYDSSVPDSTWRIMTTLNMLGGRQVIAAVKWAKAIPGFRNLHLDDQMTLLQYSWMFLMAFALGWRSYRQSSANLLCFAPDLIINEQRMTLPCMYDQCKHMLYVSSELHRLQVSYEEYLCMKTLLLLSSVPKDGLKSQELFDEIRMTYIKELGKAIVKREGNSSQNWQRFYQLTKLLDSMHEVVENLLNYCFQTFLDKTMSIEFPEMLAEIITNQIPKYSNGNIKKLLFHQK
From the text: Trans-Activation Modulation of Glucocorticoid Receptor (GRAMMER)
This assay assesses the ability of test compounds to control transcription from the MMTV-LUC reporter gene in lung adenocarcinoma A549 cells or HeLa cells, a human […] cell line that naturally expresses the human GR. The assay measures induction of a modified MMTV LTR/promoter linked to the LUC reporter gene.
The routine transient assay consists of plating 7,000-25,000 cells/well of a white, clear-bottom 96-well plate. Alternatively, 384-well plates can be used at a cell concentration of 10,000/well. The media that the cells are plated in is “exponential growth medium” which consists of phenol red-free RPMI1640 containing 10% FBS, 4 mM L-glutamine, 20 mM HEPES, 10 ug/mL human insulin, and 20 ug/mL gentamicin. Incubator conditions are 37° C. and 5% CO2. The transfection is done in batch mode. The cells are trypsinized and counted to the right cell number in the proper amount of fresh media. It is then gently mixed with the FuGene6/DNA mix and plated onto the 96 or 384-well plate, all the wells receive 100 uL or 40 uL, respectively, of medium+lipid/DNA complex then incubated 37° C. overnight. The transfection cocktail consists of serum-free OptiMEM, FuGene6 reagent and DNA. The manufacturer's (Roche Biochemical) protocol for cocktail setup is as follows: The lipid to DNA ratio is approximately 2.5:1 and the incubation time is 20 min at room temperature. Sixteen to 24 hours after transfection, the cells are treated with dexamethasone to a final concentration of 10 nM as well as the compound of interest, such that final DMSO (vehicle) concentration is equal to or less than 1%. Each plate also contains samples that are treated with 10 nM dexamethasone alone, which is used as the 100% activity control. The cells are exposed to the compounds for 24 hours. After 24 hours, the cells are lysed by a Promega cell culture lysis buffer for approximately 30 min and then the luciferase activity in the extracts is assayed in the 96-well format luminometer. In 384-well format, Steady-Glo (Promega) or Steady-Lite (PerkinElmer) can be used by adding an equal volume of reagent to the media present in each well. Activity induced by 10 nM dexamethasone alone is set at 100% activity. Antagonist activity is calculated by determining the decrease in dexamethasone-induced activity in response to compound treatment relative to samples that were treated with dexamethasone alone. […] This transactivation assay can be performed in an agonist and antagonist mode to identify these different activities. […]

[2] = biological target: T1, human GR; assay: Transrepression Assay (GITAR), TNFα-β-lactamase reporter gene in U937 cells; type: cell-based; set-up: U937 cells contain an endogenous glucocorticoid receptor (GR); endogenous in cells; host or cells: U937 cells stably transfected with the TNF-α promoter/β-lactamase reporter only; conditions: for EC50: IP = inflection point; for GITAR > GRAMM % SEP: separation of GITAR Emax over GRAMMER Emax; for Emax: U-937
Outline: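 Reporter readout used CCF2-AM loading for 70–90 min at room temperature after overnight (~18 h, 37 °C) PMA (5 ng/ml final) and LPS (100 ng/ml final) stimulation of compound-treated (30–45 min) TNFα-β-lactamase U937 cells expressing native GR. Activity was normalised to 100 nM dexamethasone repression.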

[3] = read-out: Transactivation A549 Cells GRAMMER Emax (%)
[4] = Table 1, read-out: Transactivation A549 Cells GRAMMER IP
[5] = Table 1, U937 cells, read-out: Transrepression U937 Cells GITAR IP
[6] = 100 nM dexamethasone = 100% activity, read-out: maximal activity in the transrepression assay
[7] = Table 1, U937 cells, activity repressed by 100 nM dexamethasone = 100%, read-out: Transrepression U937 Cells GITAR Emax (%)
[8] = read-out: Transactiviation A549 Cells GRAMMER Emax (%)
[9] = Table 2, read-out: Transactiviation A549 Cells GRAMMER IP
[10] = Table 2, U937 cells, read-out: Transactiviation U937 Cells GITAR IP
[11] = Table 2, U937 cells, activity repressed by 100 nM dexamethasone = 100%, read-out: Transactiviation U937 Cells GITAR Emax (%)

Structure (SMILES) | Emax [1, 3] | EC50 [1, 4] | EC50 [2, 5] | GITAR > GRAMM % SEP ([2]; Table 1) | Emax [2, 6] | Emax [2, 7] | Emax [1, 8] | EC50 [1, 9] | EC50 [2, 10] | GITAR > GRAMM % SEP ([2]; Table 2) | Emax [2, 11]
CC(O)(C(N)=O)c1ccccc1CC[C@]1(O)CCC2=Cc3c(cnn3-c3ccc(F)cc3)C[C@@]21C (single isomer, unassigned) [Example 150] | 38% | 264 nM | 210 nM | 29% | 5 to 100% | 67% | – | – | – | – | –
CC(C(N)=O)c1ccccc1CC[C@]1(O)CCC2=Cc3c(cnn3-c3ccc(F)cc3)C[C@@]21C (single isomer, unassigned) [Example 196] | 20% | 253 nM | 287 nM | 20% | 5 to 100% | 40% | – | – | – | – | –
C[C@]12Cc3cnn(-c4ccc(F)cc4)c3C=C1CC[C@@]2(O)CCc1ccccc1C(F)C(N)=O (single isomer, unassigned) [Example 198] | 29% | 187 nM | 197 nM | 23% | 5 to 100% | 52% | – | – | – | – | –
C[C@]12Cc3cnn(-c4ccc(F)cc4)c3C=C1CC[C@@]2(O)CCc1ccccc1 [Example 2 WO 2004/075840 A2, reference compound] | – | – | – | – | – | – | 73% | 230 nM | 204 nM | 5% | 78%
CCNC(=O)c1ccccc1CC[C@]1(O)CCC2=Cc3c(cnn3-c3ccc(F)cc3)C[C@@]21C [Example 2, N-ethyl-2-{2-[(4αS,5R)-1-(4-fluorophenyl)-5-hydroxy-4α-methyl-1,4,4α,5,6,7-hexahydrocyclopenta[f]indazol-5-yl]ethyl}benzamide] | 51% | 39 nM | 88 nM | 14% | 5 to 100% | 65% | – | – | – | – | –
C[C@]12Cc3cnn(-c4ccc(F)cc4)c3C=C1CC[C@@]2(O)CCc1ccccc1CNS(=O)(=O)C1CC1 [Example 5, N-(2-{2-[(4αS,5R)-1-(4-fluorophenyl)-5-hydroxy-4α-methyl-1,4,4α,5,6,7-hexahydrocyclopenta[f]indazol-5-yl]ethyl}benzyl)cyclopropanesulfonamide] | 40% | 138 nM | 179 nM | – | 5 to 100% | 64% | – | – | – | – | –
C[C@]12Cc3cnn(-c4ccc(F)cc4)c3C=C1CC[C@@]2(O)CCc1ccccc1N1CCC1=O [Example 11, 1-(2-{2-[(4αS,5R)-1-(4-fluorophenyl)-5-hydroxy-4α-methyl-1,4,4α,5,6,7-hexahydrocyclopenta[f]indazol-5-yl]ethyl}phenyl)azetidin-2-one] | 39% | 290 nM | 208 nM | 17% | 5 to 100% | 57% | – | – | – | – | –
CC(=O)Nc1ccccc1CC[C@]1(O)CCC2=Cc3c(cnn3-c3ccc(F)cc3)C[C@@]21C [Example 14, N-(2-{2-[(4αS,5R)-1-(4-fluorophenyl)-5-hydroxy-4α-methyl-1,4,4α,5,6,7-hexahydrocyclopenta[f]indazol-5-yl]ethyl}phenyl)acetamide] | 55% | 175 nM | 193 nM | 23% | 5 to 100% | 79% | – | – | – | – | –
C[C@]12Cc3cnn(-c4ccc(F)cc4)c3C=C1CC[C@@]2(O)CCc1ccccc1NS(=O)(=O)C1CC1 [Example 15, N-(2-{2-[(4αS,5R)-1-(4-fluorophenyl)-5-hydroxy-4α-methyl-1,4,4α,5,6,7-hexahydrocyclopenta[f]indazol-5-yl]ethyl}phenyl)cyclopropanesulfonamide] | 43% | 236 nM | 242 nM | 36% | 5 to 100% | 79% | – | – | – | – | –
C[C@]12Cc3cnn(-c4ccc(F)cc4)c3C=C1CC[C@@]2(O)CCc1ccccc1S(C)(=O)=O [Example 19, (4αS,5R)-1-(4-fluorophenyl)-4α-methyl-5-{2-[2-(methylsulfonyl)phenyl]ethyl}-1,4,4α,5,6,7-hexahydrocyclopenta[f]indazol-5-ol] | 46% | 127 nM | 187 nM | 33% | 5 to 100% | 79% | – | – | – | – | –
C[C@]12Cc3cnn(-c4ccc(F)cc4)c3C=C1CCC[C@@H]2[C@@H](O)Cc1ccccc1 [Example 22 WO 03/086294 A2, reference compound] | – | – | – | – | – | – | 85% | 109 nM | 327 nM | −14% | 71%
CNC(=O)Cc1ccccc1CC[C@]1(O)CCC2=Cc3c(cnn3-c3ccc(F)cc3)C[C@@]21C [Example 23, 2-(2-{2-[(4αS,5R)-1-(4-fluorophenyl)-5-hydroxy-4α-methyl-1,4,4α,5,6,7-hexahydrocyclopenta[f]indazol-5-yl]ethyl}phenyl)-N-methylacetamide] | 36% | 268 nM | 263 nM | 37% | 5 to 100% | 73% | – | – | – | – | –
COC(=O)C1(NC(=O)c2ccccc2CC[C@]2(O)CCC3=Cc4c(cnn4-c4ccc(F)cc4)C[C@@]32C)CC1 [Example 26, methyl 1-[(2-{2-[(4αS,5R)-1-(4-fluorophenyl)-5-hydroxy-4α-methyl-1,4,4α,5,6,7-hexahydrocyclopenta[f]indazol-5-yl]ethyl}benzoyl)amino]cyclopropanecarboxylate] | 24% | 39 nM | 123 nM | 15% | 5 to 100% | 39% | – | – | – | – | –
CC1(NC(=O)c2ccccc2CC[C@]2(O)CCC3=Cc4c(cnn4-c4ccc(F)cc4)C[C@@]32C)CC1 [Example 28, 2-{2-[(4αS,5R)-1-(4-fluorophenyl)-5-hydroxy-4α-methyl-1,4,4α,5,6,7-hexahydrocyclopenta[f]indazol-5-yl]ethyl}-N-(1-methylcyclopropyl)benzamide] | 28% | 48 nM | 65 nM | 43% | 5 to 100% | 72% | – | – | – | – | –
